Assay results published in patent US20030166202A1, “P450 Monooxygenases of the cyp79 family” (priority 2000, published 2003).

Columns and labels:
[1] = biological target: T1, CYP79D2 (Manihot esculenta, UniProt Q9M7B7); type: biochemical, cassava
T1 construct: made in house
Method: Investigations into the substrate specificity of CYP79D1, CYP79D2, CYP79E1, CYP79E2, CYP79A2, CYP79B2, CYP79B5 and CYP79F1 are carried out in E. coli spheroplasts reconstituted with sorghum NADPH-cytochrome P450 oxidoreductase in the presence of high amounts of lipids. L-α-dioleyl phosphatidyl choline and L-α-dilauroyl phosphatidyl choline are preferred lipids for the reconstitution. […] Depending on the nature of the substrate, substrate specificity may also be determined using intact P. pastoris cells or intact E. coli cells.
The ability of a P450 monooxygenase to convert an aliphatic or aromatic amino acid or chain-elongated methionine homologue to the corresponding oxime can be tested in an assay (see also example 5) comprising
a) incubating a reaction mixture comprising the P450 monooxygenase of the present invention or spheroplasts of E.coli cells expressing said enzyme, the parent amino acid, NADPH, oxygen, NADPH-cytochrome P450 oxidoreductase and lipid at ambient temperature for a certain period of time which is between 2 min and 2 to 6 hours;
b) terminating the reaction for example by the addition of a denaturing compounds such as ethyl acetate; and
c) chemically identifying and quantifying the aldoxime produced.

[2] = biological target: T2, CYP79A2 (Arabidopsis thaliana, UniProt Q9FLC8); test: CYP79A2 activity in E. coli spheroplasts reconstituted with NADPH:cytochrome P450 oxidoreductase; conditions: TLC or GC-MS detection
T2 sequence (Q9FLC8 7-529 limits assumed): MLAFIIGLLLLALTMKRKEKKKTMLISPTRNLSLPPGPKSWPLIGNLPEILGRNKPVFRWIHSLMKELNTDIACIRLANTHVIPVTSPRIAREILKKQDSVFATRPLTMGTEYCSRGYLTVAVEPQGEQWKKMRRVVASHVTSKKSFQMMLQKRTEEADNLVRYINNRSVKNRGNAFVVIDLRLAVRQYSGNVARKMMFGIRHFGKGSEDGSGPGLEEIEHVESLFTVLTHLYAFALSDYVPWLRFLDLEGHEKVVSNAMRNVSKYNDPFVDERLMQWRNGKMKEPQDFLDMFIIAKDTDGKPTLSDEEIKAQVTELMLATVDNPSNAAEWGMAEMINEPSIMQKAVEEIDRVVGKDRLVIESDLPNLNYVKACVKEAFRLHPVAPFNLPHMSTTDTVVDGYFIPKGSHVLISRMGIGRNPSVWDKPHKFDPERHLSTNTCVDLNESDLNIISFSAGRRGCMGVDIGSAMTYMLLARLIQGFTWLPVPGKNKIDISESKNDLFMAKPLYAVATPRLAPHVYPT

[3] = biological target: CYP79D1 (Manihot esculenta, UniProt Q9M7B8)
CYP79D1, sequence (Q9M7B8 2-542): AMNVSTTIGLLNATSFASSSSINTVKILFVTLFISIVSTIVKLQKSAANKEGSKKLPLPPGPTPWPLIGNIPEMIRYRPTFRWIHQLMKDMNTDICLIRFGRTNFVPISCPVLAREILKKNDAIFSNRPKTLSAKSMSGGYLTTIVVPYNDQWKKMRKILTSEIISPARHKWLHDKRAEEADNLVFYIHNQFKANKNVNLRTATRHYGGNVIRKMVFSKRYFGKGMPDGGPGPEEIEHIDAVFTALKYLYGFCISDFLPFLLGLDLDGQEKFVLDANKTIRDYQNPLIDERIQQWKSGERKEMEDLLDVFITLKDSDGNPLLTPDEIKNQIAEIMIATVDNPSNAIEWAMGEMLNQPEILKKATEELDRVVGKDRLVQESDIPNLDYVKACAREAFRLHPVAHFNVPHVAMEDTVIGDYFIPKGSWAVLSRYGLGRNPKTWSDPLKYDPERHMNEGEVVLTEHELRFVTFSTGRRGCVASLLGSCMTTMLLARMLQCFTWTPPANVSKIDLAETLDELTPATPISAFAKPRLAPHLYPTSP
Method: Isolated, recombinant CYP79D1 is reconstituted and its catalytic activity determined in vitro using reaction mixtures with a total volume of 30 μl containing 2.5 pmol CYP79D1, 0.05 U NADPH P450-oxidoreductase (Benveniste et al, Biochem J 235: 365-373, 1986), 10.6 mM L-α-dioleyl phosphatidylcholine, 0.35 μCi [U-^14C]-L-amino acid (L-Val, L-Ile, L-Leu, L-Tyr or L-Phe; Amersham, Sweden), 1 mM NADPH, 0.1 M NaCl and 20 mM KPi pH 7.9. In assays containing ^14C-L-valine or ^14C-L-isoleucine, different amounts of unlabeled L- and D-amino acids (0-6 mM) are added. After incubation for 10 minutes at 30° C. the products formed are extracted into 60 μl ethyl acetate and separated on TLC sheets (Merck Kieselgel 60F254) using n-pentane/diethyl ether (50:50, v/v) or toluene/ethyl acetate (5:1, v/v) as eluents for aliphatic compounds and aromatic compounds, respectively. ^14C-labeled oximes are visualized and quantified using a STORM 840 phosphor imager (Molecular Dynamics, CA, USA). The activity of CYP79D1 is additionally measured in the presence of the inhibitors tetcyclasis, ABT and DPI under the same conditions as described above. For in vivo activity assays 200 μl P. pastoris cells are pelleted and resuspended in 100 μl 50 mM Tricine pH 7.9 and 0.35 μCi [U-^14C]-L-valine or L-isoleucine. After incubation for 30 minutes at 30° C. the cells are extracted with ethyl acetate and the products formed are analyzed as above.
CYP79D1 is reconstituted with sorghum NADPH-P450 oxidoreductase in the presence of high amounts of the lipid L-α-dioleyl phosphatidylcholine and 100 mM NaCl. […] To examine the effect of inhibitors on isolated CYP79D1, reconstitutions are performed in the presence of tetcyclasis, ABT and DPI using the same conditions as for cassava microsomes.

T1 sequence (Q9M7B7 whole entry): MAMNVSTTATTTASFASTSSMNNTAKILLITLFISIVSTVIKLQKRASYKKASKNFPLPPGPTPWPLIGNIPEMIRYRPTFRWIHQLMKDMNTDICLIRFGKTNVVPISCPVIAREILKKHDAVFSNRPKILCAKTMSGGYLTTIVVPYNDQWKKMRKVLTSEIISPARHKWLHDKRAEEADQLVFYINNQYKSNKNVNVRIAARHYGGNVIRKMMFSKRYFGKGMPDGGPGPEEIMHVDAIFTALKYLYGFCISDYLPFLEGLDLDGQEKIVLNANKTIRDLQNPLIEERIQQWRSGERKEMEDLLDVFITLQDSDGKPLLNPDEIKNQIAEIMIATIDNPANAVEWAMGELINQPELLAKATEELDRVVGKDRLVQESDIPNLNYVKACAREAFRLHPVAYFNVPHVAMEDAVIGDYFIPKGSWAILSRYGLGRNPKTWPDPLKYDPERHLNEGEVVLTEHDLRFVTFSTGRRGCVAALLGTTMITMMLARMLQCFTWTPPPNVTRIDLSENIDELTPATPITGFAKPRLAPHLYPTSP

In the case of `N[C@@H](Cc1ccc(O)cc1)C(=O)O` [L-tyrosine], the “conversion to the corresponding oxime by CYP79D2” value [1] was “Neither L-Leucine, L-phenylalanine nor L-tyrosine are metabolized”, the “production of the respective aldoxime by CYP79A2” value [2] was “does not result in production of detectable amounts of the respective aldoximes” and the “metabolism relative to that observed with L-valine (detection level)” value [3] was < 0.8%.
